According to patent US11925649B2, “Treatments for diabetic neuropathy” (University of Manitoba, priority 2010, dated 2024):

Columns and labels:
[1] = test system: sensory neurons from DRG of Sprague Dawley rat; test: Total neurite outgrowth at low concentrations of M1R antagonists (immunostaining); assay type: cell-based; settings: 24 hr culture
Protocol: Sensory neurons from cervical, thoracic and lumbar DRG of an adult 3-4 month old male Sprague Dawley rat were isolated and dissociated using the method described in Example 1, and then were cultured for 24 h in serum-free and insulin-free F12 medium in the presence of modified N2 additives. […] Neurite outgrowth was then assessed after a culture period of 24 hr.
Total neurite lengths (i.e., the sum of the length of all neurites produced by an individual neuron) were assessed using an immunostaining method. […] Four images were captured per well and the replicate well frequency was set to n=6. The neuronal marker β-tubulin III (Sigma-Aldrich Canada Ltd.) was applied to formalin fixed cells. The marker was tagged with the fluorescent conjugate Alexa Fluor 488 (Invitrogen Canada Ltd.). Fluorescent images were collected using an Olympus IX71 inverted microscope with a 20×/0.45 PH1 [sequence] objective that was suitable for resolving images on plastic surfaces. […] Captured image fluorescence was thereafter converted to a grayscale 8-bit image to quantify total pixel volume. […] Total pixel volume of the neuron specific cell bodies and neurites were quantified. […] The net pixel volume was normalized against the number of neuronal cells per quantified field.

[2] = test system: DRG sensory neurons from M1R knockout mice; test: Neurite outgrowth in sensory neuron cultures from M1R knockout mice; assay type: cell-based, mouse; settings: 1 μM, 24 hr
[3] = test system: STZ diabetic C57Bl6J mice; test: Prophylactic topical hydrogel application in STZ diabetic mice; assay type: in vivo, mouse
Protocol: Male C57Bl6J mice were made diabetic with 2 injections of 90 mg/kg STZ on consecutive days, and then separated into three groups. There were also two groups control (non-diabetic) mice. The first group of control (non-diabetic) mice received daily topical treatment with 50 μl Intrasite® hydrogel (Intrasite is a registered trademark of T. J. Smith and Nephew, Hull, England) to both hind paws, with a controlled exposure time of 20 minutes. […] The third group of mice were diabetic mice that received daily topical treatment with 50 μl hydrogel to both hind paws.
Two months after the second STZ injection, the function of the small sensory neurons in all five groups of mice were determined by measuring hind paw thermal response latency following the procedure described in Example 7.
The structural integrity of small sensory neurons was assessed by measuring IENF profiles in hind paw plantar skin as described in Example 7.
A suitable gel is exemplified by Intrasite® sterile hydrogel prod. no. 66027313 (Smith & Nephew Inc, St. Laurent, PQ, CA).

[4] = test system: STZ-induced diabetic C57Bl6J mice; test: Reappearance of neuropathy after withdrawal of treatment; assay type: in vivo, mouse
Text: Only 9 weeks later (the 17-wk time point) was there a significant reappearance of hypoalgesia in the previously treated STZ-induced diabetic mice (FIG. 12).

COX IV = COX IV expression in DRG of STZ-diabetic mice (Western blot); assay type: in vivo, mouse; settings: daily injections for 8 weeks
Protocol: Quantitative Western blotting was performed as described in Example 15. Quantitative Western blotting was performed as previously disclosed by Chowdhury et al (2010) and Fernyhough et al. (1999). DRG homogenates of 5-10 μg of protein were resolved on a 10% SDS-PAGE gel and electroblotted onto nitrocellulose membrane. Blots were then blocked in 5% nonfat milk containing 0.05% Tween-20, rinsed in PBS (pH 7.4) and incubated with the following antibodies: monoclonal anti-cytochrome c oxidase subunit 4 (COX IV; 1:1000, Mitosciences, Eugene, OR, US), monoclonal anti-NADH dehydrogenase (ubiquinone) iron-sulfur protein 3 (NDUFS3, 1:1000, Mitosciences, Eugene, OR, US). Extracellular signal-regulated kinase (T-ERK; 1:2000, Covance, Princeton, NJ, US) was probed as a loading control. The blots were rinsed, incubated in Western blotting Luminol Reagent (Santa Cruz Biotechnology Inc., Santa Cruz, CA, US) and imaged using a BioRad Fluor-S image analyzer (BioRad, Hercules, CA, US).

[5] = test system: mitochondrial respiratory complex I; test: Mitochondrial respiratory complex I activity in DRG of STZ-diabetic mice; assay type: in vivo, mouse; settings: daily injections for 8 weeks, lumbar DRG
Protocol: (§1) All measurements of enzymatic activities in lumbar DRG preparations were performed spectrophotometrically using a temperature controlled Ultrospec 2100 UV-visible spectrophotometer (Biopharmacia Biotech, Uppsala, Sweden) using the methods taught by Chowdhury et al. (2010). Complex I activity was measured as rotenone-sensitive NADH: cytochrome c reductase activity. Freshly prepared assay buffer (50 mmol/l K-phosphate pH 7.4, 1 mmol/l KCN, 100 μmol/l NADH) and 10 μg protein of DRG homogenate preparation were added to the cuvette and preincubated for 3 min at 25° C. After addition of 100 μmol/l oxidized cytochrome c, the reaction was followed for 2 minutes at 550 nm and then for 2 more minutes after addition of 25 μmol/l rotenone to allow calculation of the rotenone-sensitive Complex I activity. Complex IV activity was measured at 25° C. by monitoring the absorbance decrease of reduced cytochrome c at 550 nm as disclosed by Chowdhury et al. (2000, Clin. Chim. Acta 298: 157-173). […] Activity of the Krebs cycle enzyme, citrate synthase, was determined at 25° C. in medium containing 150 mmol/l Tris-HCl (pH 8.2), 0.02% laurylmaltoside, 0.1 mmol/l dithionitrobenzoic acid and 5 μg protein according to the method of Chowdhury et al (2007, Free Radic. Res. 41: 1116-1124). The reaction was initiated by addition of 100 μmol/l acetyl CoA and changes in absorbance at 412 nm were measured for 1 minute. […]

[6] = test system: mitochondrial respiratory complex IV; test: Mitochondrial respiratory complex IV activity in DRG of STZ-diabetic mice; assay type: in vivo, mouse; settings: daily injections for 8 weeks, lumbar DRG
Protocol: as §1

[7] = test system: mitochondria from lumbar DRG of STZ-diabetic rats; test: Mitochondrial respiratory chain activity in lumbar DRG of STZ-diabetic rats; assay type: in vivo, rat; settings: daily s.c. during last eight weeks, 20 weeks
Text: The rats were then culled and subsequently the lumbar DRG were isolated and rinsed in ice-cold solution containing STE buffer (250 mmol/l sucrose, 10 mmol/l Tris-HCl, 1 mmol/l EDTA, pH 7.4), and then homogenized with a polytron homogenizer ([…] GmbH, Switzerland) using 3×7.5 s grinding pulses at 30 s intervals according to the method taught by Chowdhury et al. (2010).
Mitochondrial respiratory chain activity in freshly isolated mitochondria from lumbar DRG of age-matched control, diabetic, and pirenzepine-treated diabetic rats was determined using a Clarke-type electrode (Oroboros Oxygraph-2K; Oroboros Instruments, Innsbruck, Austria) following the method taught by Chowdhury et al. (2005, Biochem Biophys Res Commun. 333: 1139-1145), in the presence of specific substrates and inhibitors of the mitochondrial respiratory chain (FIG. 19). Basal respiration in lumbar DRG mitochondria is stated as respiration at state 4 with energetic substrates, pyruvate and malate (P+M). Coupled respiration at state 3 was induced by addition of ADP. Then, the uncoupled rate was determined by adding the uncoupling agent, carbonylcyanide p-trifluoromethoxyphenylhydrazone (FCCP). Ascorbate (Asc) and N,N,N′,N′-tetramethyl-p-phenylenediamine (TMPD) were then added to determine the capacity of cytochrome c oxidase (complex IV). TMPD is an artificial redox mediator that assists transfer of electrons from ascorbate to cytochrome c.

[8] = control (non-diabetic) mice, 10% hydrogel, treated hindpaw
[9] = diabetic mice, 2% or 10% hydrogel, vs control mice

SMILES: CN1CCN(CC(=O)N2c3ccccc3C(=O)Nc3cccnc32)CC1 [pirenzepine, 11-[2-(4-methylpiperazin-1-yl)acetyl]-5H-pyrido[2,3-b][1,4]benzodiazepin-6-1]
- concentration that significantly increased total neurite outgrowth [1]: ≥ 0.003 µM
- neurite outgrowth [2]: did not enhance neurite outgrowth
- IENF per mm of skin [3, 8]: numerically, but statistically insignificant, increases
- SNP per mm of skin [3, 8]: numerically, but statistically insignificant, increases
- thermal response latency ([3]; control (non-diabetic) mice, daily topical hydrogel comprising 10% pirenzepine): not affected
- levels of IENF in treated paw [3, 9]: no significant changes
- levels of SNP in treated paw [3, 9]: no significant changes
- thermal response latency in treated paw ([3]; diabetic mice, daily topical 2% or 10% hydrogel, vs control mice): did not demonstrate any significant changes
- thermal hypoalgesia ([4]; 10 mg/kg daily s.c., after 8 weeks): hypoalgesia was prevented
- time after stopping treatment to significant reappearance of hypoalgesia ([4]; treatment stopped at 8 weeks, 17-wk time point): 9 weeks
- expression of COX IV mitochondrial protein (COX IV): restored the expression
- activity of mitochondrial respiratory complex I [5]: restored the deficits
- activity of mitochondrial respiratory complex IV [6]: restored the deficits
- capacity of cytochrome c oxidase (complex IV) (Asc+TMPD) [7]: not significantly different from the non-diabetic controls
- coupled respiration (P+M+ADP) [7]: not significantly different from the non-diabetic controls
- uncoupled respiration (FCCP) [7]: not significantly different from the non-diabetic controls
- basal respiration rates with pyruvate and malate (P+M) ([7]; vs control and diabetic rats): similar
